For assay [1], the system named is ovarian cancer cells (OVCAR-3). In words: Cancer cell line growth inhibition, Sulforhodamine B assay, OVCAR-3. It counts as cell-based. As to conditions: Homo sapiens, OVCAR-3, OVCAR-3 ovarian cancer cell line; read-out: Cancer Cell Line GI50 Range OVCAR-3. An outline of the steps:
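OVCAR-3 cells were seeded 24 h before compound addition, then exposed for 5 days to final concentrations of 10 nM to 50 μM in DMEM with 10% FBS. Growth was measured by TCA fixation and sulforhodamine B staining with absorbance at 570 nm. Inhibition was relative to DMSO-only cells, and GI50 came from curve fitting.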

Another assay deals with T1, human TTK (Homo sapiens, UniProt P33981).
T1 construct: Active TTK was purchased from Invitrogen as an amino terminal GST fusion of full length human TTK; purchased Invitrogen
T1 sequence (P33981 1-857): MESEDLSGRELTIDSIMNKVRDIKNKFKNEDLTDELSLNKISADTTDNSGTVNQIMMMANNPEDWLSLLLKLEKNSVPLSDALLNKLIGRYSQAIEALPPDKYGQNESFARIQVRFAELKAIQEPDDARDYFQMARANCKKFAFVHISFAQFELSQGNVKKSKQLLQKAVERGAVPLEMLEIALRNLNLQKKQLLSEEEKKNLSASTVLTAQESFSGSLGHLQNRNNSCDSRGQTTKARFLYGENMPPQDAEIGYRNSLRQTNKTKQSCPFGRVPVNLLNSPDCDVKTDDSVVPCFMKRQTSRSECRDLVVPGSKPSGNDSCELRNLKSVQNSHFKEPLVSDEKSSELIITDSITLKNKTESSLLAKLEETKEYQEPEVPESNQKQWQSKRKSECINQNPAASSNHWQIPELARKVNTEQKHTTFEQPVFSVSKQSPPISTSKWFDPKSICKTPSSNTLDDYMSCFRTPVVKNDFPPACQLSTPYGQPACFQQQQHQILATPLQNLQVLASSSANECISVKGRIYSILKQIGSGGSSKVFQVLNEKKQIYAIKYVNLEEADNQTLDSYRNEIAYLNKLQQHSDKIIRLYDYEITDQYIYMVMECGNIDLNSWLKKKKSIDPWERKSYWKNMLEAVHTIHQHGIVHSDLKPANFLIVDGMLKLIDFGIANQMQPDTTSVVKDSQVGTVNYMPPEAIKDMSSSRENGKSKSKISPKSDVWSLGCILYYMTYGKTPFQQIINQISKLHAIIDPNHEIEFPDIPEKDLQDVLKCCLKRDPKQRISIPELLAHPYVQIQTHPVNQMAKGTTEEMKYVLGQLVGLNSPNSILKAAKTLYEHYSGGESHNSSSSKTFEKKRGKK
The experiment in a line: TTK inhibition assay (indirect ELISA). The format is biochemical. Summed up: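 Activity detected by indirect ELISA after compounds sat with full-length GST-TTK for 5 min prior to starting the reaction with ATP. IC50 came from a four-parameter logistic curve of % inhibition, calculated against background and uninhibited control wells.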
(In general: In an ELISA, binding on a coated surface is turned into a signal by an enzyme label.)

Assay [2] deals with Ovarian 2393A tumor initiating cells. In words: Tumor-initiating cell growth inhibition, Alamar Blue assay, ovarian TICs. The format is cell-based. As to conditions: 144 h; Ovarian 2393A TICs, 6 days; read-out: Tumor Initiating Cell GI50 Range Ovarian 2393A. The source says:
(§1) Non-tissue or tissue cultured treated T-75 flask and 96-well plates were purchased from VWR. Vitamin B-27 supplement, MEM NEAA (minimum essential medium non essential amino acids), sodium pyruvate, L-glutamine, N2 supplement, penicillin-streptomycin and fungizone/amphotericin B were obtained from Invitrogen. Lipid mixture, heparin and EGF were purchased from Sigma; bFGF from BD Biosciences. Tumor Initiating Cells (TICs) from colon were routinely maintained using non-tissue cultured treated T-75 flasks in DMEM:F12 medium containing 0.2XB-27 supplement, 4 ug/ml heparin, 1×MEM NEAA, 1×sodium pyruvate, 1 mM glutamine, 10 pg/ul bFGF, 20 pg/ul EGF, 1× N2 supplement, lipid mixture, penicillin-streptomycin and fungizone/amphotericin B. Ovarian TICs were routinely maintained using tissue cultured treated T-75 flasks in DMEM:F12 medium containing IXB-27 supplement, 4 ug/ml heparin, 20 pg/ul bFGF, 20 pg/ul EGF and penicillin-streptomycin.
(§2) Compounds described herein were dissolved in DMSO and further diluted in cell culture medium for GI50 determination. Colon TICs were trypsinized and seeded into non-tissue cultured treated 96-well plates with 4,000 cells/well. After 24 h, compound was added into the cell culture at different concentrations, and the final concentration of DMSO was adjusted to 0.1%. Cells were then cultured at 37° C. for 9 days. Ovarian TICs were trypsinized and seeded into tissue cultured treated 96-well plates with 1,000 cells/well. After 24 h, compound was added into the cell culture at different concentrations, and the final concentration of DMSO was adjusted to 0.1%. Cells were then cultured at 37° C. for 6 days. Cell viability was assessed by Alamar Blue assay: 10 ul of Alamar Blue was added into each well. After 4 hours incubation at 37° C., fluorescence was recorded at excitation 544 and emission 590. GI50 (Growth inhibition) was calculated using GraphPad Prism 4.0 software.
(§3) In Table 1 below, GI50 value ranges for compound examples against TICs (Colon 12 and Ovarian 2393A) are given.

For assay [3], the system named is breast cancer cells (MDA-MB-468). In words: Cancer cell line growth inhibition, Sulforhodamine B assay, MDA-MB-468. The format is cell-based. Conditions: Homo sapiens, MDA-MB-468, MDA-MB-468 breast cancer cell line; read-out: Cancer Cell Line GI50 Range MDA-MB-468. An outline of the steps: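 MDA-MB-468 cells exposed 5 days to compound at final 10 nM to 50 μM in DMEM with 10% FBS. Growth measured by sulforhodamine B protein staining after TCA fixation, absorbance 570 nm; inhibition relative to DMSO-only cells, GI50 determined for cytotoxic compounds.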
(In general: The SRB assay estimates cell density from bound dye.)

Assay [4] concerns Colon 12 tumor initiating cells. In words: Tumor-initiating cell growth inhibition, Alamar Blue assay, colon TICs. It counts as cell-based. As to conditions: 216 h; Colon 12 TICs, 9 days; read-out: Tumor Initiating Cell GI50 Range Colon 12.
Text: as §1, §2, §3

For assay [5], the system named is colon cancer cells (HCT116). The experiment in a line: Cancer cell line growth inhibition, Sulforhodamine B assay, HCT116. It counts as cell-based. Conditions: Homo sapiens, HCT-116, HCT116 colon cancer cell line; read-out: Cancer Cell Line GI50 Range HCT116. An outline of the steps:
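HCT116 cells, 1000–4000 per well, seeded 24 h ahead, then treated 5 days with compound at 10 nM to 50 μM final in DMEM with 10% FBS. Growth measured by sulforhodamine B staining after TCA fixation, A570; GI50 from inhibition relative to DMSO-only cells.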

Setting [6] is: 100 μM ATP, read-out: TTK IC50 Range.
The mark [7] stands for this setting: 16 μM ATP (Sigma cat# A7699), read-out: TTK IC50 Range (denoted with an asterisk).

The structures appear in SMILES notation. Like-named read-outs stand apart in the source and are kept apart here.

One may read the GI50 as the concentration at which growth is held to half of that of the control. A word on the IC50: it is the point on the concentration scale where inhibition reaches its midpoint.

For `Cc1cc(-c2cnn3c(NC[C@H]4CC[C@@H](O)CC4)cc(Oc4cccnc4)nc23)ccc1C(=O)NC1CC1` [Example C176], the GI50 in assay [1], in assay [2], in assay [3], in assay [4] and in assay [5] was at most 100 nM in each case. Further, the IC50 on human TTK (setting [6]) is below 100 nM.

Turning to `Cc1cc(-c2cnn3c(NCC4CCOCC4)nc(Nc4ccccc4)nc23)ccc1C(=O)NC1CC1` [Example C10], the GI50 in assay [1], in assay [2], in assay [3], in assay [4] and in assay [5] was above 500 nM each time. The IC50 on human TTK (setting [7]) is below 100 nM.

As to `Cc1cc(-c2cnn3c(NCC4CCOCC4)cc(N[C@H](CO)C4CCCC4)nc23)ccc1C(=O)NC1CC1` [Example C165], the GI50 was 100 to 500 nM in assay [1]; 100 to 500 nM in assay [2]; 100 to 500 nM in assay [3]; at most 100 nM in assay [4]; at most 100 nM in assay [5]. Moreover, the IC50 at human TTK (setting [6]) was below 100 nM.

As for `Cc1cc(-c2cnn3c(NCC4CCOCC4)cc(OC4CCN(C5COC5)C4)nc23)ccc1C(=O)NC1CC1` (stereo not shown) [Example C116], the GI50 in assay [1] was 100 to 500 nM; in assay [2], 100 to 500 nM; in assay [3] it was 100 to 500 nM; in assay [4] it was 100 to 500 nM; in assay [5], at most 100 nM. Moreover, on human TTK (setting [6]), the IC50 is below 100 nM.

Turning to `Cc1cc(-c2cnn3c(NC[C@H]4CC[C@@H](O)CC4)cc(NC4CCOCC4)nc23)ccc1C(=O)NC1CC1` [Example C179], the GI50 in assay [1], in assay [3] and in assay [5] was at most 100 nM each time. Also, the IC50 on human TTK (setting [6]) was below 100 nM.

As for `O=C(NC1CC1)c1ccc(-c2cnn3c(NCCN4CCOCC4)cc(Oc4cccc(F)c4)nc23)cc1Cl` [Example C34], the GI50 in assay [1], in assay [3] and in assay [5] was at most 100 nM throughout. At human TTK (setting [6]), the IC50 is below 100 nM.

For `Cc1cc(-c2cnn3c(NCC4CCOCC4)cc(N[C@H]4CCOC4)nc23)ccc1C(=O)NC1CC1` [Example C138], the GI50 was 100 to 500 nM in assay [1], 100 to 500 nM in assay [3] and at most 100 nM in assay [5]. Moreover, the IC50 on human TTK (setting [6]) is below 100 nM.

Consider `CC[C@H](Nc1cc(NC[C@H]2CCOC2)n2ncc(-c3ccc(C(=O)NC4CC4)c(C)c3)c2n1)[C@H](C)O` [Example C133], for which the GI50 in assay [1], in assay [3] and in assay [5] was 100 to 500 nM each time. The IC50 on human TTK (setting [6]) was below 100 nM.

On to `Cc1cc(-c2cnn3c(NCC4CC4)cc(Oc4cccnc4)nc23)ccc1C(=O)NC1CC1` [Example C152], for which the GI50 in assay [1], in assay [3] and in assay [5] was at most 100 nM in each case. Moreover, the IC50 at human TTK (setting [6]) is below 100 nM.

Regarding `COCCNc1nc(OC2CCCC2)nc2c(-c3ccc(C(=O)NC4CC4)cc3)cnn12` [Example C8], the GI50 in assay [1], in assay [3] and in assay [5] was 100 to 500 nM in each case. Also, the IC50 on human TTK (setting [7]) is below 100 nM.

As for `Cc1cc(-c2cnn3c(NC[C@@H]4CCOC4)cc(N[C@H]4CCCC[C@H]4O)nc23)ccc1C(=O)NC1CC1` [Example C36, N-cyclopropyl-4-(5-(((1S,2R)-2-hydroxycyclohexyl)amino)-7-((((S)-tetrahydrofuran-3-yl)methyl)amino)pyrazolo[1,5-a]pyrimidin-3-yl)-2-methylbenzamide], the GI50 in assay [1], in assay [3] and in assay [5] was at most 100 nM each time. Further, the IC50 on human TTK (setting [6]) is below 100 nM.

`Cc1cc(-c2cnn3c(NCC4CCOCC4)cc(NCC4CC4)nc23)ccc1C(=O)NC1CC1` [Example C103]: the GI50 in assay [1] is 100 to 500 nM; in assay [3], 100 to 500 nM; in assay [5] it was at most 100 nM. For the same molecule, the IC50 on human TTK (setting [6]) was below 100 nM.

As to `Cc1cc(-c2cnn3c(NCC4CCOCC4)cc(NC4(CO)CC4)nc23)ccc1C(=O)NC1CC1` [Example C139], the GI50 in assay [1], in assay [3] and in assay [5] was 100 to 500 nM throughout. Moreover, the IC50 at human TTK (setting [6]) was below 100 nM.

With `Cc1cc(-c2cnn3c(NC[C@H]4C[C@@H](O)C4)cc(Oc4cccnc4)nc23)ccc1C(=O)NC1CC1` [Example C159], the GI50 in assay [1], in assay [3] and in assay [5] was at most 100 nM in each case. Also, the IC50 on human TTK (setting [6]) was below 100 nM.

In the case of `Cc1cc(-c2cnn3c(NCC4CCOCC4)nc(NC4CCCCC4)nc23)ccc1C(=O)NC1CC1` [Example C22], the GI50 in assay [1], in assay [3] and in assay [5] was 100 to 500 nM each time. Further, on human TTK (setting [7]), the IC50 is below 100 nM.

Regarding `Cc1cc(-c2cnn3c(NC[C@H]4CCCO4)cc(NC4CCCC4)nc23)ccc1C(=O)NC1CC1` [Example C62], the GI50 in assay [1], in assay [3] and in assay [5] was 100 to 500 nM in each case. Also, the IC50 on human TTK (setting [6]) was below 100 nM.

For `Cc1cc(-c2cnn3c(NCC4CCOCC4)cc(N[C@H]4CCCC[C@@H]4O)nc23)ccc1C(=O)NC1CC1` [Example C125], the results for the GI50 in assay [1], in assay [3] and in assay [5] were 100 to 500 nM, at most 100 nM and at most 100 nM, respectively. For the same molecule, the IC50 at human TTK (setting [6]) was below 100 nM.

For `Cc1cc(-c2cnn3c(NCC4CCOCC4)cc(Nc4cccnc4)nc23)ccc1C(=O)NC1CC1` [Example C59], the GI50 in assay [1], in assay [3] and in assay [5] was 100 to 500 nM in each case. The IC50 at human TTK (setting [6]) is below 100 nM.

Consider `Cc1cc(-c2cnn3c(NCC4CCOCC4)cc(N[C@H]4COCC[C@@H]4O)nc23)ccc1C(=O)NC1CC1` [Example C79], for which the GI50 in assay [1], in assay [3] and in assay [5] was above 500 nM each time. At human TTK (setting [6]), the IC50 was below 100 nM.

For `Cc1cc(-c2cnn3c(NCCN4CCOCC4)nc(Oc4cccc(F)c4)nc23)ccc1C(=O)NC1CC1` [Example C27], the GI50 in assay [1] was 100 to 500 nM; in assay [3], 100 to 500 nM; in assay [5] it was at most 100 nM. In addition, the IC50 at human TTK (setting [7]) is below 100 nM.

Values taken from patent US9573954B2, “Pyrazolopyrimidine compounds” (University Health Network, priority 2012, dated 2017).
